target: T1, HDAC6 enzyme (Homo sapiens, UniProt Q9UBN7); test: HDAC6 enzyme inhibitory activity (HDAC-Glo I/II Assay kit); assay type: biochemical; conditions: 10 μM; wells without enzyme = 100% inhibition; read-out: HDAC6 inhibitory rate (%) (10 μM)
T1 construct: transducing full length HDAC6 gene into Sf-9 insect cells; GST; purchased SignalChem; host or cells: Sf-9 insect cells
T1 sequence (Q9UBN7 1-1215): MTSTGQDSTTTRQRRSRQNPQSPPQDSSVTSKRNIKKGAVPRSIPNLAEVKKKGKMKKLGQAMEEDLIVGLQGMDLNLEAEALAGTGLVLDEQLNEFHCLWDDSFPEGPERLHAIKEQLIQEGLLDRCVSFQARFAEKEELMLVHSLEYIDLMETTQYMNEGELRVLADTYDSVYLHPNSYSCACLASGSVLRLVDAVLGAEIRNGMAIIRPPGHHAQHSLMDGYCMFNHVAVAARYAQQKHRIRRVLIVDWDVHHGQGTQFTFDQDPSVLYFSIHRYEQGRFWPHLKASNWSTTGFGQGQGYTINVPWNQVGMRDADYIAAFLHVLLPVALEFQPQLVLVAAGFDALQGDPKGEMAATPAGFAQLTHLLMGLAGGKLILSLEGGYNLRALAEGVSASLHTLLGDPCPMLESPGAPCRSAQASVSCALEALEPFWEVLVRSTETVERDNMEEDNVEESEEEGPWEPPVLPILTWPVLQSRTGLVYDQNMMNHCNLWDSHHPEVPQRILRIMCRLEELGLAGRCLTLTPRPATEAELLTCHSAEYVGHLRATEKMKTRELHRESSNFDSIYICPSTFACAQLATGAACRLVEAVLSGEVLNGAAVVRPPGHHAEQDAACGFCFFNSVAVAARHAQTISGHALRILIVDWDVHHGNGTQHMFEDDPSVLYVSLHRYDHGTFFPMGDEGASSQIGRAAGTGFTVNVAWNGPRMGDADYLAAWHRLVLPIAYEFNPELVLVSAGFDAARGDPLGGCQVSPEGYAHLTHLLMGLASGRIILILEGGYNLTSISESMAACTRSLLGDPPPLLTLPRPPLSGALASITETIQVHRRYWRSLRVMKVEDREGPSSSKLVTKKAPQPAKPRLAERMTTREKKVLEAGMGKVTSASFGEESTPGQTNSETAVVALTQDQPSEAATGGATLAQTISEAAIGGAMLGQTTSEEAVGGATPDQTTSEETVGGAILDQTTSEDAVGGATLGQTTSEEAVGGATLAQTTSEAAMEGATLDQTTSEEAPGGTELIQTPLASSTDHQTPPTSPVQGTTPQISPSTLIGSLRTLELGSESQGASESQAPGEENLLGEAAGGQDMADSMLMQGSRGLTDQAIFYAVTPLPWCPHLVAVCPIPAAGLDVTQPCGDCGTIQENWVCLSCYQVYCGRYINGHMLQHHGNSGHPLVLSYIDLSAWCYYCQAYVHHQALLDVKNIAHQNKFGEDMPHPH
Summary of the method: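 Full-length human HDAC6 (GST-purified, Sf-9 expressed) preincubated with compound 60 min at room temperature in Tris-HCl pH 7.5 buffer with MgCl2, KCl, NaCl, glutathione, Tween-20. HDAC-Glo I/II substrate-developer then added, 20 min room temperature, luminescence read. Inhibition relative to no-enzyme wells as 100%.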

SMILES	inhibition at 10 µM
O=C1c2cc(-c3nnc(C(F)F)o3)ccc2CN1[C@@H]1CCOC[C@@H]1NCC(F)(F)F [Example 415, 6-(5-(difluoro-methyl)-1,3,4-oxadiazol-2-yl)-2-((3R,4R)-3-((2,2,2-trifluoro-ethyl)amino)tetrahydro-2H-pyran-4-yl) isoindolin-1-one]	101%
O=C1c2cc(-c3nnc(C(F)F)o3)ccc2CN1[C@@H]1CCOC[C@@H]1NCC(F)(F)C(F)(F)F [Example 416, 6-(5-(difluoro-methyl)-1,3,4-oxadiazol-2-yl)-2-((3R,4R)-3-((2,2,3,3,3-pentafluoro-propyl)amino)tetrahydro-2H-pyran-4-yl) isoindolin-1-one]	101%
O=C1c2cc(-c3nnc(C(F)F)o3)ccc2CN1[C@@H]1CCOC[C@@H]1NC(=O)C(F)(F)C(F)(F)F [Example 418, N-((3R,4R)-4-(6-(5-(difluoro-methyl)-1,3,4-oxadiazol-2-yl)-1-oxo-1,3-dihydro-2H-isoindol-2-yl)tetrahydro-2H-pyran-3-yl)-2,2,3,3,3-pentafluoro-propanamide]	99%
O=C1c2cc(-c3nnc(C(F)F)o3)cc(F)c2CN1C[C@H]1CC(F)(F)CN1S(=O)(=O)c1cccc(F)c1 [Example 420, 2-(((2R)-4,4-difluoro-1-((3-fluoro-phenyl)sulfonyl)pyrrolidin-2-yl)methyl)-6-(5-(difluoro-methyl)-1,3,4-oxadiazol-2-yl)-4-fluoroiso-indolin-1-one]	99%
O=C1c2cc(-c3nnc(C(F)F)o3)cc(F)c2CN1C[C@H]1CC(F)(F)CN1S(=O)(=O)CC(F)(F)F [Example 421, 6-(5-(difluoro-methyl)-1,3,4-oxadiazol-2-yl)-2-(((2R)-4,4-difluoro-1-((2,2,2-trifluoro-ethyl)sulfonyl)pyrrolidin-2-yl)methyl)-4-fluoroiso-indolin-1-one]	98%
O=C1c2cc(-c3nnc(C(F)F)o3)cc(F)c2CN1C[C@H]1CC(F)(F)CN1C(=O)C1CC1 [Example 422, 2-(((2R)-1-(cyclopropyl-carbonyl)-4,4-difluoro-pyrrolidin-2-yl)methyl)-6-(5-(difluoro-methyl)-1,3,4-oxadiazol-2-yl)-4-fluoroiso-indolin-1-one]	98%
Cn1nc(C(F)(F)F)cc1-c1c(Cl)cccc1N1Cc2ccc(-c3nnc(C(F)F)o3)cc2C1=O [Example 426, 2-(3-chloro-2-(1-methyl-3-(trifluoro-methyl)-1H-pyrazol-5-yl)phenyl)-6-(5-(difluoro-methyl)-1,3,4-oxadiazol-2-yl) isoindolin-1-one]	99%
O=C1c2cc(-c3nnc(C(F)F)o3)cc(F)c2CN1C[C@H]1CCCN1S(=O)(=O)c1cccc(F)c1 [Example 427, 6-(5-(difluoro-methyl)-1,3,4-oxadiazol-2-yl)-4-fluoro-2-(((2R)-1-((3-fluorophenyl)sulfonyl)pyrrolidin-2-yl)methyl) isoindolin-1-one]	100%
O=C1c2cc(-c3nnc(C(F)F)o3)cc(F)c2CN1C[C@H]1CC(F)(F)CN1C(=O)c1ccccc1 [Example 429, 2-(((2R)-1-benzoyl-4,4-difluoro-pyrrolidin-2-yl)methyl)-6-(5-(difluoro-methyl)-1,3,4-oxadiazol-2-yl)-4-fluoroiso-indolin-1-one]	97%
O=C1c2cc(-c3nnc(C(F)F)o3)cc(F)c2CN1C[C@H]1CC(F)(F)CN1S(=O)(=O)c1ccccc1 [Example 430, 6-(5-(difluoro-methyl)-1,3,4-oxadiazol-2-yl)-2-(((2R)-4,4-difluoro-1-(phenylsulfonyl)pyrrolidin-2-yl)methyl)-4-fluoroiso-indolin-1-one]	101%
Cn1nc(C(F)(F)F)cc1-c1c(F)cccc1N1Cc2ccc(-c3nnc(C(F)F)o3)cc2C1=O [Example 431, 6-(5-(difluoro-methyl)-1,3,4-oxadiazol-2-yl)-2-(3-fluoro-2-(1-methyl-3-(trifluoro-methyl)-1H-pyrazol-5-yl)phenyl)iso-indolin-1-one]	100%
O=C1c2cc(-c3nnc(C(F)F)o3)ccc2CN1C1(Cc2ccccc2)CCOCC1 [Example 433, 2-(4-benzyl-tetrahydro-2H-pyran-4-yl)-6-(5-(difluoro-methyl)-1,3,4-oxadiazol-2-yl) isoindolin-1-one]	101%
Cn1cc(-c2cn(C)nc2N2Cc3ccc(-c4nnc(C(F)F)o4)cc3C2=O)cn1 [Example 434, 6-(5-(difluoro-methyl)-1,3,4-oxadiazol-2-yl)-2-(1,1′-dimethyl-1H,1′H-4,4′-bipyrazol-3-yl) isoindolin-1-one]	98%
O=C1c2cc(-c3nnc(C(F)F)o3)ccc2CN1c1ccnn1-c1ccccc1 [Example 435, 6-(5-(difluoro-methyl)-1,3,4-oxadiazol-2-yl)-2-(1-phenyl-1H-pyrazol-5-yl)isoindolin-1-one]	99%
Cn1cc(-c2c(F)cccc2N2Cc3ccc(-c4nnc(C(F)F)o4)cc3C2=O)cn1 [Example 436, 6-(5-(difluoro-methyl)-1,3,4-oxadiazol-2-yl)-2-(3-fluoro-2-(1-methyl-1H-pyrazol-4-yl)phenyl)iso-indolin-1-one]	98%

Results, then the compound that gave them:

inhibition at 10 µM	SMILES
99%	Cn1ccc(CN2Cc3ncc(-c4nnc(C(F)F)o4)cc3C2=O)n1 [Example 419, 3-(5-(difluoro-methyl)-1,3,4-oxadiazol-2-yl)-6-((1-methyl-1H-pyrazol-3-yl)methyl)-6,7-dihydro-5H-pyrrolo[3,4-b] pyridin-5-one]
99%	Cn1cc(CN2Cc3ncc(-c4nnc(C(F)F)o4)cc3C2=O)cn1 [Example 423, 3-(5-(difluoro-methyl)-1,3,4-oxadiazol-2-yl)-6-((1-methyl-1H-pyrazol-4-yl)methyl)-6,7-dihydro-5H-pyrrolo[3,4-b] pyridin-5-one]
101%	O=C1c2cc(-c3nnc(C(F)F)o3)cnc2CN1c1ccccc1-c1cnn(C(F)F)c1 [Example 424, 3-(5-(difluoro-methyl)-1,3,4-oxadiazol-2-yl)-6-(2-(1-(difluoro-methyl)-1H-pyrazol-4-yl)phenyl)-6,7-dihydro-5H-pyrrolo[3,4-b] pyridin-5-one]
99%	O=C1c2cc(-c3nnc(C(F)F)o3)cnc2CN1Cc1cncc(C(F)(F)F)c1 [Example 425, 3-(5-(difluoro-methyl)-1,3,4-oxadiazol-2-yl)-6-((5-(trifluoro-methyl)pyridin-3-yl)methyl)-6,7-dihydro-5H-pyrrolo [3,4-b] pyridin-5-one]
99%	O=C1c2cc(-c3nnc(C(F)F)o3)cnc2CN1Cc1cccc(Br)c1 [Example 428, 6-(3-bromo-benzyl)-3-(5-(difluoro-methyl)-1,3,4-oxadiazol-2-yl)-6,7-dihydro-5H-pyrrolo [3,4-b] pyridin-5-one]
94%	O=C1c2cc(-c3nnc(C(F)F)o3)cnc2CN1Cc1cccc(OC(F)(F)F)c1 [Example 432, 3-(5-(difluoro-methyl)-1,3,4-oxadiazol-2-yl)-6-(3-(trifluoro-methoxy)benzyl)-6,7-dihydro-5H-pyrrolo[3,4-b] pyridin-5-one]
101%	O=C1c2cc(-c3nnc(C(F)F)o3)cnc2CN1Cc1ccccc1OC(F)(F)F [Example 437, 3-(5-(difluoro-methyl)-1,3,4-oxadiazol-2-yl)-6-(2-(trifluoro-methoxy)benzyl)-6,7-dihydro-5H-pyrrolo [3,4-b]pyridin-5-one]
97%	Cn1cccc1CN1Cc2ncc(-c3nnc(C(F)F)o3)cc2C1=O [Example 438, 3-(5-(difluoro-methyl)-1,3,4-oxadiazol-2-yl)-6-((1-methyl-1H-pyrrol-2-yl)methyl)-6,7-dihydro-5H-pyrrolo [3,4-b]pyridin-5-one]

same assay, conditions: read-out: HDAC6 inhibitory rate (%) (10 μM)

SMILES	inhibition at 10 µM
O=C1c2cc(-c3nnc(C(F)F)o3)ccc2CN1[C@@H]1CCOC[C@@H]1NCC(F)(F)C(F)(F)C(F)(F)F [Example 417, 6-(5-(difluoro-methyl)-1,3,4-oxadiazol-2-yl)-2-((3R,4R)-3-((2,2,3,3,4,4,4-heptafluoro-butyl)amino)tetrahydro-2H-pyran-4-yl) isoindolin-1-one]	101%

— patent US10435399B2, “HDAC6 inhibitory heterocyclic compound” (TAKEDA PHARMACEUTICAL COMPANY LIMITED, priority 2017, dated 2019)
